Measurements: patent US8183001B2 (priority 2006, dated 2012)

Columns and labels:
TM chimera = TM chimera (Caenorhabditis elegans, UniProt G5ECD3+G5EE10); format: cell-based, C. elegans; conditions: TM chimera homomer; 5 μM PS
Protocol: (§1) Electrophysiology: Plasmids containing wild-type and mutagenized GABAA receptor subunits were linearized and transcribed in vitro using T3 RNA polymerase (mMessage mMachine T3 kit, Ambion, Austin Tex.). UNC-49B mRNA was injected into Xenopus laevis oocytes at 0.5 μg/μl either alone, or in a mixture with 0.5 μg/μl UNC-49C. […] The injection volume ranged between 27.6 nl to 50.6 nl. […] Cells were voltage clamped at −60 mV. All recordings were performed at room temperature.

UNC-49B homomer = UNC-49B homomer (Caenorhabditis elegans, UniProt G5ECD3); format: cell-based, C. elegans; conditions: UNC-49B homomer
Chain of UNC-49B homomer (G5ECD3 entry or part of it): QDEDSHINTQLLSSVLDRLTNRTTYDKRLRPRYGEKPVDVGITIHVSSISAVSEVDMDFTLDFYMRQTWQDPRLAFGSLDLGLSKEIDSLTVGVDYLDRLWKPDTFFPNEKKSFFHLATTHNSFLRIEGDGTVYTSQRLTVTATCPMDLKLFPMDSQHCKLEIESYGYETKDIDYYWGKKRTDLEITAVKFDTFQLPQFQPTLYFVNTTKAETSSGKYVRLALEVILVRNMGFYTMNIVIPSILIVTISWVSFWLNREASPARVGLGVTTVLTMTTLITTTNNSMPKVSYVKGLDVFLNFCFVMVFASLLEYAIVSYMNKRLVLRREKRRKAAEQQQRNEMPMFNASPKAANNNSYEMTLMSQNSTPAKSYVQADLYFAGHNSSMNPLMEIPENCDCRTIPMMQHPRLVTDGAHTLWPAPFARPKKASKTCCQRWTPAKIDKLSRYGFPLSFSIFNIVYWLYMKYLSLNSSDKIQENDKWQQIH
Protocol: as §1

UNC-49B-PS7 = format: cell-based, C. elegans
Protocol: as §1

X(I265S) = X(I265S) (Caenorhabditis elegans, UniProt G5ECD3, I262F/I265S/M258L/N259Q/N305R/S264A/T257F/V261F); format: cell-based, C. elegans; conditions: at EC50 GABA
Chain of X(I265S) (G5ECD3 23-506, stated change not applied): as the sequence (G5ECD3 entry or part of it) above
Protocol: as §1

X(I267V) = X(I267V) (Caenorhabditis elegans, UniProt G5ECD3, I262F/I267V/M258L/N259Q/N305R/S264A/T257F/V261F); format: cell-based, C. elegans; conditions: at EC50 GABA
Chain of X(I267V) (G5ECD3 23-506, stated change not applied): as the sequence (G5ECD3 entry or part of it) above
Protocol: as §1

X(T269V) = X(T269V) (Caenorhabditis elegans, UniProt G5ECD3, I262F/M258L/N259Q/N305R/S264A/T257F/T269V/V261F); format: cell-based, C. elegans; conditions: at EC50 GABA
Chain of X(T269V) (G5ECD3 23-506, stated change not applied): as the sequence (G5ECD3 entry or part of it) above
Protocol: as §1

XZ chimera = XZ chimera (Caenorhabditis elegans, UniProt G5ECD3, A281S/E280D/I262F/L277I/M258L/N259Q/N305R/S264A/S282A/T257F/V261F); format: cell-based, C. elegans; conditions: at EC50 GABA
Chain of XZ chimera (G5ECD3 23-506, stated change not applied): as the sequence (G5ECD3 entry or part of it) above
Protocol: as §1

Y chimera = Y chimera (Caenorhabditis elegans, UniProt G5ECD3, I265S/I267V/I270L/N259Q/N305R/T269V/V261F/V273I); format: cell-based, C. elegans; conditions: Y chimera; at EC50 GABA
Chain of Y chimera (G5ECD3 23-506, stated change not applied): as the sequence (G5ECD3 entry or part of it) above
Protocol: as §1

[1] = target: double chimera (M1 + linker) (Caenorhabditis elegans, UniProt G5ECD3+G5EE10); format: cell-based, C. elegans; conditions: at EC50 GABA
Chain of double chimera (M1 + linker) (G5ECD3 23-506, change not shown): as the sequence (G5ECD3 entry or part of it) above
Chain of double chimera (M1 + linker) (G5EE10 entry or part of it, change not shown): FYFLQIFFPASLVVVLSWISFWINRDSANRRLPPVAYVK
Protocol: as §1

UNC-49B/C heteromer = UNC-49B/C heteromer (Caenorhabditis elegans, UniProt G5ECD3+G5EE10); format: cell-based; conditions: UNC-49B/C heteromer
Chain of UNC-49B/C heteromer (G5EE10 entry or part of it): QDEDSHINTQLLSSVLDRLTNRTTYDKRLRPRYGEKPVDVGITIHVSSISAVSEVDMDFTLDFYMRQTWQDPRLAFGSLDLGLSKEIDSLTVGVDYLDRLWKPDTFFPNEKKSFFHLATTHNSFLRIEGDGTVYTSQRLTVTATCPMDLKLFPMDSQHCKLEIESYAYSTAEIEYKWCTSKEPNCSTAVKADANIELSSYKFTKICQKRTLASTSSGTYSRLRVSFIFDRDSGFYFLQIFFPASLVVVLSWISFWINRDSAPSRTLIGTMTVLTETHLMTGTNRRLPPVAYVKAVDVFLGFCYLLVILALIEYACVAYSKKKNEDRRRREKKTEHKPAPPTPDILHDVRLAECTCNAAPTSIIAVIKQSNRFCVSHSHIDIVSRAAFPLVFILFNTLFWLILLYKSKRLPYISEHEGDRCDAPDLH
Chain of UNC-49B/C heteromer (G5ECD3 entry or part of it): as the sequence (G5ECD3 entry or part of it) above
Protocol: as §1

M1-M2 chimera = M1-M2 chimera (Caenorhabditis elegans, UniProt G5ECD3+G5EE10); experiment: Xenopus oocyte two electrode voltage-clamp, GABA-evoked currents; format: cell-based, C. elegans; conditions: 5 μM PS, 1000 μM GABA, versus M1-M2-linker chimera
Chain of M1-M2 chimera (G5ECD3 23-506, change not shown): as the sequence (G5ECD3 entry or part of it) above
Chain of M1-M2 chimera (G5EE10 256-304, change not shown): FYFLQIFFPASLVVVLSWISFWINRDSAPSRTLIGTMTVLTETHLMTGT
Protocol: as §1
The strategy represents a deletion of UNC-49C material from the carboxy to amino terminal end of the transmembrane portion of the subunit, which is then replaced with UNC-49B sequences.

QF-R [2] = target: QF-R (Caenorhabditis elegans, UniProt G5ECD3, N259Q/N305R/V261F); format: cell-based, C. elegans; conditions: QF-R; at EC50 GABA
Chain of QF-R (Caenorhabditis elegans, UniProt G5ECD3, N259Q/N305R/V261F) (G5ECD3 23-506, stated change not applied): as the sequence (G5ECD3 entry or part of it) above
Protocol: as §1
(§2) The conserved residues were tested in the UNC-49C M1 domain in a similar way. […] To test the importance of these conserved residues, they were substituted into an UNC-49B subunit with the linker mutation N305R to create the ‘QF-R’ subunit (FIG. 3c).

QF-R [3] = format: cell-based, C. elegans
Protocol: as §1, §2

Y(S264A) = Y(S264A) (Caenorhabditis elegans, UniProt G5ECD3, I265S/I267V/I270L/N259Q/N305R/S264A/T269V/V261F/V273I); format: cell-based, C. elegans; conditions: at EC50 GABA
Chain of Y(S264A) (G5ECD3 23-506, stated change not applied): as the sequence (G5ECD3 entry or part of it) above
Protocol: as §1
(§3) Important residues in the X segment were tested by substituting UNC-49C residues into the Y chimera. […] These divergent X segment residues were tested by mutating them from UNC-49B to UNC-49C amino acids in the Y chimera background.

Y(T257F) = Y(T257F) (Caenorhabditis elegans, UniProt G5ECD3, I265S/I267V/I270L/N259Q/N305R/T257F/T269V/V261F/V273I); format: cell-based, C. elegans
Chain of Y(T257F) (G5ECD3 23-506, stated change not applied): as the sequence (G5ECD3 entry or part of it) above
Protocol: as §1, §3

Y(T257F/M258L) = Y(T257F/M258L) (Caenorhabditis elegans, UniProt G5ECD3, I265S/I267V/I270L/M258L/N259Q/N305R/T257F/T269V/V261F/V273I); format: cell-based, C. elegans; conditions: at EC50 GABA
Chain of Y(T257F/M258L) (G5ECD3 23-506, stated change not applied): as the sequence (G5ECD3 entry or part of it) above
Protocol: as §1, §3

Y(T257F/M258L/S264A) = Y(T257F/M258L/S264A) (Caenorhabditis elegans, UniProt G5ECD3, I265S/I267V/I270L/M258L/N259Q/N305R/S264A/T257F/T269V/V261F/V273I); format: cell-based, C. elegans; conditions: at EC50 GABA
Chain of Y(T257F/M258L/S264A) (G5ECD3 23-506, stated change not applied): as the sequence (G5ECD3 entry or part of it) above
Protocol: as §1, §3

Y(T257F/S264A) = Y(T257F/S264A) (Caenorhabditis elegans, UniProt G5ECD3, I265S/I267V/I270L/N259Q/N305R/S264A/T257F/T269V/V261F/V273I); format: cell-based, C. elegans
Chain of Y(T257F/S264A) (G5ECD3 23-506, stated change not applied): as the sequence (G5ECD3 entry or part of it) above
Protocol: as §1, §3

Chain of TM chimera (G5EE10 256-448, change not shown): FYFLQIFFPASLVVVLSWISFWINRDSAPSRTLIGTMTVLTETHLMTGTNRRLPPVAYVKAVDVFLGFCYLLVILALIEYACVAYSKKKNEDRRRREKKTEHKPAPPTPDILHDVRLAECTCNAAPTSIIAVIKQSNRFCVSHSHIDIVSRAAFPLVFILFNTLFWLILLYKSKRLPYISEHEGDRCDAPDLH
Chain of TM chimera (G5ECD3 23-254, change not shown): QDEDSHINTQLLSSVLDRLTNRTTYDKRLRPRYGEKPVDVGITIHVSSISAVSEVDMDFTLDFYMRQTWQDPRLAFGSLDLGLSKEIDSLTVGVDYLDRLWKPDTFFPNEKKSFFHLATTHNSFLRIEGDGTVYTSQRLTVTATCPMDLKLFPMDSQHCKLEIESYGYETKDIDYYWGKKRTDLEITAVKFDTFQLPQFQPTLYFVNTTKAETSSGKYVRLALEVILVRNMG

pregnenolone sulfate [PS] was tested, and the PS inhibition (TM chimera) was “strongly inhibited”, the “inhibition of GABA-evoked current” value (UNC-49B homomer; 100 μM PS, EC50 GABA) was 40% and the “PS Slope coefficient” value (UNC-49B homomer; at EC50 GABA) was 0.7. The “fold increase in PS sensitivity” value (UNC-49B-PS7; UNC-49B-PS7 versus UNC-49B subunit) was 58 fold, the “fold difference in PS sensitivity” value (UNC-49B-PS7; UNC-49B-PS7 versus UNC-49B/C heteromer) was 1.4 fold and the “PS Slope coefficient” value (X(I265S)) was 1.1 ± 0.1. The “PS Slope coefficient” value (X(I267V)) was 1.1 ± 0.05, the “PS Slope coefficient” value (X(T269V)) was 1.2 ± 0.1 and the “PS Slope coefficient” value (XZ chimera) was 1.1 ± .06. The “PS Slope coefficient” value (Y chimera) was 10.4 ± 1.3, the “PS Slope coefficient” value [1] was 1.4 ± 0.1 (n = 4) and the “inhibition of GABA-evoked current” value (UNC-49B/C heteromer; 100 μM PS, EC50 GABA) was 95%. For the same substance, the “PS Slope coefficient” value (UNC-49B/C heteromer; at EC50 GABA) was 0.9 ± 0.1 (n = 4), the PS sensitivity (M1-M2 chimera) was “significantly less PS sensitive” and the “PS Slope coefficient” value (QF-R [2]) was 1.5 ± 0.5 (n = 6). For the same substance, the “fold more sensitive to PS than N305R” value (QF-R [3]; QF-R versus N305R) was 2.1 fold, the “fold less sensitive to PS than the double chimera” value (QF-R [3]; QF-R versus double chimera) was 6.7 fold and the “PS Slope coefficient” value (Y(S264A)) was 5.3 ± 1.8. For the same substance, the “reduction of the holding current by PS alone, relative to EC50 GABA-evoked current” value (Y(T257F); T257F point mutant, 100 μM PS) was 6-20%, the “PS Slope coefficient” value (Y(T257F); Y(T257F), at EC50 GABA) was 1.3 ± 0.06 and the “PS Slope coefficient” value (Y(T257F/M258L)) was 2.3 ± 0.2. The “PS Slope coefficient” value (Y(T257F/M258L/S264A)) was 1.44 ± 0.1, the “reduction of the holding current by PS alone, relative to EC50 GABA-evoked current” value (Y(T257F/S264A); T257F/S264A point mutant, 100 μM PS) was 6-20% and the “PS Slope coefficient” value (Y(T257F/S264A); Y(T257F/S264A), at EC50 GABA) was 0.9 ± 0.08.
